Data on 3 compounds can be found in patent publication US11078204B2, “Heterocyclic derivatives as PI3K inhibitors” (Incyte Corporation, priority 2018, dated 2021).

pIC50: −log10 of the molar value. Counter-ions that a name gives are not always drawn. Where only a bound is given, the exact number is not on record here.

In test [1] the target is PI3Kγ (p110γ) Recombinant Human Protein (Homo sapiens (Human), UniProt P48736). The test can be described thus: PI3K-γ Scintillation Proximity Assay. In kind it is biochemical. Particulars: 20 μM PIP2, 2 μM ATP, 13 nM PI3Kγ, 120 min. An outline of the steps: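 Recombinant human p110γ (13 nM) phosphorylated 20 μM PIP2 with 2 μM ATP plus 0.5 μCi [γ-33P]ATP for 120 min at room temperature in 20 mM MOPS pH 6.7, 10 mM MgCl2, 5 mM DTT, 0.03% CHAPS, 2% DMSO. Product was captured on WGA SPA beads in EDTA quench and counted. IC50 was fitted from percent of solvent-control activity.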
Chain of PI3Kγ (p110γ) Recombinant Human Protein (P48736 whole entry): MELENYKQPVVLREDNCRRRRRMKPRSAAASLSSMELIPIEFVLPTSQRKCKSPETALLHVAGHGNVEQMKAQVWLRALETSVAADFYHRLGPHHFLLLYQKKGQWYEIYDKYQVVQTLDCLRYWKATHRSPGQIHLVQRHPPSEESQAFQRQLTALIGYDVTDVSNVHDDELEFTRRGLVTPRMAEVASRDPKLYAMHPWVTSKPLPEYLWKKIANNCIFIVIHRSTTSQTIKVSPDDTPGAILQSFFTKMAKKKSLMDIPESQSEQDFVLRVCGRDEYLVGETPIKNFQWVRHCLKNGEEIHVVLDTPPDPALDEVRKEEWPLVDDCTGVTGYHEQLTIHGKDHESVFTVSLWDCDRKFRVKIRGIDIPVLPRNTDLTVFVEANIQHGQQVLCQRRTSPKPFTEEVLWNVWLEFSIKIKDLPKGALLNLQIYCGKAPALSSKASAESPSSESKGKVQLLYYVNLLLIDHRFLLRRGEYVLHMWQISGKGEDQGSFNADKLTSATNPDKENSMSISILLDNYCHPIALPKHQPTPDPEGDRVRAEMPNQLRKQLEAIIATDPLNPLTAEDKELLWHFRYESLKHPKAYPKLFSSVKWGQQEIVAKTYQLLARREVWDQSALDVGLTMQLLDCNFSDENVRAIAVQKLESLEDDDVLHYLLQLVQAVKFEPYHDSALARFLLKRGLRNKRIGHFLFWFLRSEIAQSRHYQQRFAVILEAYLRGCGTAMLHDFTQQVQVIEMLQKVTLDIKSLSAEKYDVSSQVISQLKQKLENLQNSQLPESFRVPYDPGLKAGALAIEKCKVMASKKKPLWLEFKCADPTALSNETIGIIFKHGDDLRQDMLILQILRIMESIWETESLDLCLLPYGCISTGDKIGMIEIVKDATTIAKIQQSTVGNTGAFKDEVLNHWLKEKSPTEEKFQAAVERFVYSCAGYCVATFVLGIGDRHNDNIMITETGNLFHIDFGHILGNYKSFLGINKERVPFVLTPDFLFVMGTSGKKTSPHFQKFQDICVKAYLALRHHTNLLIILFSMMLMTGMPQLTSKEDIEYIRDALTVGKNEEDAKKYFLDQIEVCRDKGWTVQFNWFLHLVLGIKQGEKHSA
(In a scintillation proximity assay essentially only radioactivity close to the scintillant gives light.)

Test [2] deals with PI3Kδ (p110δ/p85α) Recombinant Human Protein (Homo sapiens (Human), UniProt O00329). Description: PI3Kδ Scintillation Proximity Assay. Type of test: biochemical. Particulars: 20 μM PIP2, 2 μM ATP, 3.4 nM PI3Kδ, 120 min. An outline of the steps:
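Recombinant p110δ/p85α (3.4 nM) with 20 μM PIP2, 2 μM ATP plus [γ-^33P]ATP, in 20 mM MOPS pH 6.7, 10 mM MgCl2, 5 mM DTT, 0.03% CHAPS, 2% DMSO; 120 min at room temperature. EDTA quench, WGA SPA beads, scintillation counting. IC50 from percent of solvent-control activity versus log concentration.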

In test [3] the test system is Phosphorylated Ribosomal Protein S6 (RPS6) in THP-1 cells. Description: THP-1 RPS6 ELISA Assay. Particulars: Homo sapiens, 2 hours compound, 10 nM MCP-1 for 15 minutes, Phospho-RPS6 ELISA, read-out: PI3Kγ_THP1_RPS6_ELISA IC50. Type of test: cell-based. The protocol: Example A. THP-1 RPS6 ELISA Assay To measure the Phosphorylated Ribosomal Protein S6 (RPS6) in cell lysates, THP-1 cells (Human Acute Monocytic Leukemia) are purchased from ATCC (Manassas, Va.) and maintained in RPMI with 10% FBS (Gibco/Life Technologies, Carlsbad, Calif.). For the assay, THP-1 cells are serum starved overnight in RPMI, then plated in RPMI (2×10^5 cells/well in 90 μL) into 96-well flat-bottom tissue culture treated plates (Corning, Corning, N.Y.), in the presence or absence of a concentration range of test compounds. Covered plates are incubated for 2 hours at 37° C., 5% CO2 then treated with or without 10 nM MCP-1 (MYBioSource, San Diego, Calif.) for 15 minutes at 37° C., 5% CO2. Plates are centrifuged at 1600 RPM and supernatants are removed. Cells are lysed in Lysis Buffer (Cell Signaling, Danvers, Mass.) with Protease Inhibitor (Calbiochem/EMD, Germany), PMSF (Sigma, St Louis Mo.), HALTS (Thermo Fisher, Rockford, Ill.) for 30 min on wet ice. Cell lysates are frozen at −80° C. before testing. The lysates are tested in the Human/Mouse/Rat Phospho-RPS6 ELISA (R&D Systems, Inc. Minn, Minn.). The plate is measured using a microplate reader (SpectraMax M5-Molecular Devices, LLC Sunnyvale, Calif.) set to 450 nm with a wavelength correction of 540. IC50 determination is performed by fitting the curve of inhibitor percent inhibition versus the log of the inhibitor concentration using the GraphPad Prism 5.0 software.
Background: ELISA stands for enzyme-linked immunosorbent assay.

Chain of PI3Kδ (p110δ/p85α) Recombinant Human Protein (O00329 whole entry): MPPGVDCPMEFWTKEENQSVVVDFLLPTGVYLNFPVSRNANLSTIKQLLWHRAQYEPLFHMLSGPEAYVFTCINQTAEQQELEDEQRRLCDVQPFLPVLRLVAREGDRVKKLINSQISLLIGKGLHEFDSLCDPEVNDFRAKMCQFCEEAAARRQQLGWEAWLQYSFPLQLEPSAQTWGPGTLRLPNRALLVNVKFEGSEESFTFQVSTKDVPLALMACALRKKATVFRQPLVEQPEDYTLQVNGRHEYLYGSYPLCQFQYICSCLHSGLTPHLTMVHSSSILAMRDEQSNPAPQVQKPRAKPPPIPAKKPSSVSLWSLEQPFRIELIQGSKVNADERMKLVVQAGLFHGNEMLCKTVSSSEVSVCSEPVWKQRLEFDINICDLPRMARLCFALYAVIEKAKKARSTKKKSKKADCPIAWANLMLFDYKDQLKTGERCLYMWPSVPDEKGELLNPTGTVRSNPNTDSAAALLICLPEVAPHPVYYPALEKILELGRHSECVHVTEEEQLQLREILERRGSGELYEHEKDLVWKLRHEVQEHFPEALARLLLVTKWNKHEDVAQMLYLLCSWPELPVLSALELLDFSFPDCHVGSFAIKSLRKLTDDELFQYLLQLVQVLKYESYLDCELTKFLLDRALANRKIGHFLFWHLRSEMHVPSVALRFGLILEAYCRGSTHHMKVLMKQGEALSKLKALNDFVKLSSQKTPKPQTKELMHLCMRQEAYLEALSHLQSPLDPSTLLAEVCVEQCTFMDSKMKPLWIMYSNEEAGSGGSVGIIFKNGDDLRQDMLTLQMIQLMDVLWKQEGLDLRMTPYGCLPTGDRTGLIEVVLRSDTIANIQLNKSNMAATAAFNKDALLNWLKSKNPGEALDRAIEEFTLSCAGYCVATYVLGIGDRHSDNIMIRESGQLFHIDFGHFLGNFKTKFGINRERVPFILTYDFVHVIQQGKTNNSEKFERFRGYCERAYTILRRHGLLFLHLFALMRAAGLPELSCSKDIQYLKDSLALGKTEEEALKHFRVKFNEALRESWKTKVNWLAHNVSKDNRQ
Chain of PI3Kδ (p110δ/p85α) Recombinant Human Protein (P27986 whole entry partner): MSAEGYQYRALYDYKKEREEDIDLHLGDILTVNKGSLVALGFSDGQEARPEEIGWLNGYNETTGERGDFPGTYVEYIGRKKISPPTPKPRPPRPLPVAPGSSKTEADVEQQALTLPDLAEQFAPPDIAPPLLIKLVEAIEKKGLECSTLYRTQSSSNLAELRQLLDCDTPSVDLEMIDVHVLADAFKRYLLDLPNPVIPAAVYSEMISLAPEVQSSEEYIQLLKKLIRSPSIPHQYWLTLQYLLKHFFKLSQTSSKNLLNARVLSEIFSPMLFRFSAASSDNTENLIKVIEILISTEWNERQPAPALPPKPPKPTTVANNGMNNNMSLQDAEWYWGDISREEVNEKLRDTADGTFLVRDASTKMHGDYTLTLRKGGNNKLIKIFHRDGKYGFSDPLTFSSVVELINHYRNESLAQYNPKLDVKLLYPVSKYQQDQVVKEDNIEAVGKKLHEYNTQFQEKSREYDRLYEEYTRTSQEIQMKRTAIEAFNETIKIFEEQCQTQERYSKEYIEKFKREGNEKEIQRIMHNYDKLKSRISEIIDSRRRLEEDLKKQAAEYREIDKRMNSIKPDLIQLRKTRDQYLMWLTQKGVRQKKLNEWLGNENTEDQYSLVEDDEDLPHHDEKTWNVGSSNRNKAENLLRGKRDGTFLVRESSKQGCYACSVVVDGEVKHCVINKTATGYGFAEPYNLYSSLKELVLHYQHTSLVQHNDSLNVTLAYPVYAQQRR

Broadly, the pIC50 is the IC50 on a negative log10 scale, so that one unit is a factor of ten. With `CSc1cc(-c2cnc3c(N)nc(C(F)(F)F)cn23)cc2c1C(=O)N([C@@H](C)C1CC1)C2` [Example 2, (S)-5-(8-Amino-6-(trifluoromethyl)imidazo[1,2-a]pyrazin-3-yl)-2-(1-cyclopropylethyl)-7-(methylthio)isoindolin-1-one], the pIC50 is at least 7.00 in test [1], at least 6.30 in test [2] and at most 6.00 in test [3].
As to `C[C@@H](C1CC1)N1Cc2cc(-c3cnc4c(N)ncnn34)cc(C(O)(CO)C(F)(F)F)c2C1=O` (mixture of isomers) [Example 39, 5-(4-Aminoimidazo[2,1-f][1,2,4]triazin-7-yl)-2-((S)-1-cyclopropylethyl)-7-(1,1,1-trifluoro-2,3-dihydroxypropan-2-yl)isoindolin-1-one, trifluoroacetate salt], the pIC50 in test [1] is at least 7.00; in test [2] it was above 5.70; in test [3] it was at most 6.00.
Taken in the same sequence, the figures for `C[C@@H](C1CC1)N1Cc2cc(-c3cnc4c(N)nc(C(=O)NC5CCOCC5)cn34)cc(S(C)(=O)=O)c2C1=O` [Example 29, (S)-8-Amino-3-(2-(1-cyclopropylethyl)-7-(methylsulfonyl)-1-oxoisoindolin-5-yl)-N-(tetrahydro-2H-pyran-4-yl)imidazo[1,2-a]pyrazine-6-carboxamide, trifluoroacetate salt] were at least 7.00, at least 6.30 and above 6.00.
